# Measurements taken from patent US20230212202A1, “TREATMENT OF MGMT DEFICIENT CANCER WITH 2-FLUOROETHYL-SUBSTITUTED NITROSOUREAS AND OTHER COMPOUNDS” (YALE UNIVERSITY, priority 2021, published 2023).
# Assays:
# [1] = tested on: DLD1 MSH6-deficient cells; assay: Short-term viability assay with or without O6BG; type: cell-based, human; conditions: with or without O6BG-induced MGMT depletion
# Source text: (§1) Short-term Cell Viability Assay.
# [2] = tested on: HCT116 MLH1-/- cells or HCT116 +Chr3 cells; assay: Short-term viability assay with or without O6BG; type: cell-based, human
# Source text: as §1
# [3] = tested on: LN229 MGMT+/- cells with shRNA targeting MSH6, MLH1, PMS2, or MSH3; assay: Short-term viability assay, MMR shRNA lines; type: cell-based, human; conditions: shMSH6, shMLH1, shPMS2, shMSH3
# [4] = tested on: linearized pUC19 plasmid DNA; assay: In vitro DNA cross-linking assay; type: biochemical; conditions: 100 µM, 6-36 hours
# Procedure: Plasmid Linearization Assay. To set up the linearization reactions, 20 units of EcoRI-HF (New England Biolabs) was mixed with 20 µg 2686 bp pUC19 vector DNA in CutSmart buffer (New England Biolabs), pH 7.9, in a total volume of 1000 µL for 30 min at 37° C. The CutSmart buffer contains 50 mM potassium acetate, 20 mM Tris acetate, 10 mM magnesium acetate, and 100 µg/mL BSA. The reacted DNA was then purified using PCR cleanup kit and quantified using the NanoDrop One (Thermo Fisher). The DNA was then stored at -20° C. before use in in vitro DNA cross-linking assays or melting temperature analysis.
# In Vitro DNA Cross-linking Assays. Linearized pUC19 DNA, prepared as described above, was used for in vitro DNA cross-linking assays. For each condition, 200 ng of linearized pUC19 DNA (15.4 µM base pairs) was incubated with the indicated concentration of drug in 20 µL. Drug stock concentrations were made in DMSO such that each reaction contained a fixed 5% DMSO concentration. Reactions were conducted in 100 mM Tris buffer (pH 7.4). Cisplatin (Sigma) and DMSO vehicle were used as positive and negative controls, respectively. Reactions were conducted between 3-96 h at 37° C. The DNA was stored at -80° C. until electrophoretic analysis. For gel electrophoresis, DNA concentration was preadjusted to 10 ng/µL. […]
# [5] = tested on: WT and XPA-deficient MEFs; assay: Short-term cell viability assay in NER isogenic MEFs; type: cell-based, mouse; conditions: ±MGMT depletion with O6BG
# Source text: as §1
# [6] = tested on: linearized pUC19 plasmid DNA; assay: Melting temperature assay; type: biochemical; conditions: 100 or 500 µM, 3 h
# [7] = tested on: FANCD2 ubiquitination in LN229 MGMT+/-, MMR+/- cells; assay: Western blot analysis of FANCD2 ubiquitination; type: cell-based, human
# Procedure: Western Blotting. For phospho-protein analysis experiments, cells were lysed in 1X RIPA buffer (Cell Signaling Technology, #9806) supplemented with 1X Protease Inhibitor Cocktail (Roche) and 1X PhosSTOP Phosphatase Inhibitor Cocktail (Sigma). For all other western blot analyses, cells were lysed in lysis buffer (50 mM HEPES, 250 mM NaCl, 5 mM EDTA, 1% NP-40) supplemented with 1X Protease Inhibitor Cocktail (Roche). The de-ubiquitination inhibitor N-ethylmaleimide (NEM, 4 mM) was added in FANCD2 ubiquitination analysis experiments. Proteins were separated using NuPAGE 4-12% Bis-Tris or 3-8% Tris-Acetate Gels (Invitrogen) and transferred to Immobilon-P PVDF membrane (Millipore) for western blotting. Membranes were blocked with 5% milk in TBS-T for 1 h prior to primary antibody addition overnight at 4° C. […] Where shown, bands were quantified using ImageJ software.
# [8] = tested on: PEO4 (BRCA2+) and PEO1 (BRCA2-/-) cells; assay: Short-term viability assay with or without O6BG; type: cell-based, human
# [9] = tested on: DLD1 BRCA2+/- and BRCA2-/- cells; assay: Short-term viability assay with or without O6BG; type: cell-based, human
# [10] = tested on: LN229 MGMT-/MMR- flank tumors; assay: Xenograft flank tumor model; type: in vivo, mouse
# [11] = tested on: BJ fibroblast cells
# Procedure: Short-term Cell Viability Assay. Cells were seeded in 96-well plates at 1000 or 2000 cells/well and allowed to adhere at 23° C. for 60 min and then incubated overnight at 37° C. […] Cells were imaged on a Cytation 3 imaging reader (BioTek) and quantified using CellProfiler software.
smiles,measurement,setting,value
NC(=O)c1ncn2c(=O)n(CCF)nnc12 [KL-50],activity in DLD1 cells,[1],"toxic to these cells, but only after O^6BG-induced MGMT depletion"
same,activity in HCT116 cells,[2],selective tumor cell killing specifically in the setting of O^6BG-induced MGMT suppression
same,activity in MGMT- LN229 cells lacking other MMR proteins,[3],confirmed
same,ICLs in plasmid DNA,[4],"possessed ICLs, with delayed rates of formation relative to 12b"
same,sensitivity of XPA deficient cells,[5],absence of additional sensitivity
same,DNA melting temperature,[6],comparable changes in measured DNA melting temperature
same,FANCD2 ubiquitination,[7],observed specifically in MGMT- cells
same,sensitivity of BRCA2-/- cells,[8],BRCA2 loss enhanced the toxicity
same,therapeutic index (TI),[8]; PEO1/4 model,62 fold
same,sensitivity of BRCA2-/- cells,[9],BRCA2 loss enhanced the toxicity
same,"therapeutic index (TI), ratio of IC50 values in MGMT+/BRCA2+ cells compared to MGMT-/BRCA2- cells",[9]; DLD1 isogenic model,~ 600 fold
same,tumor growth,"[10]; 5 mg/kg MWF × 3 weeks, P.O.",potently suppressed tumor growth
same,increase in median OS vs TMZ,[10]; Kaplan-Meier,greater than 5 week
same,median OS,"[10]; Kaplan-Meier, 5 mg/kg MWF × 3 weeks",greater than 15 weeks
same,cytotoxicity in normal human fibroblast cells,[11],no increase in toxicity
